Laboratory results as given in patent publication US12281363B2, “Methods for detecting antiviral-drug resistant virus” (Secretary of State for Health and Social Care, priority 2018, dated 2025).
Like-named read-outs stand apart in the source and are kept apart here.

Tested on: HSV-1
Experiment: Plaque reduction assay, HSV-1 clinical isolates on Vero cells
Format: cell-based
Details: Human alphaherpesvirus 1, Vero
Procedure, shortened: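 Susceptibility of HSV-1 isolates was read as percent plaque reduction versus no-drug control, counted on fixed, crystal-violet-stained sub-confluent Vero cells infected at 75 PFU/well beneath CMC. Intermediate resistance lies between cut-offs ACV <3/>40 μM, PCV <10/>40 μM, CDV <24/>30 μM, FOS <250/>400 μM.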

SMILES: Nc1nc2c(ncn2COCCO)c(=O)[nH]1 [Aciclovir, acyclovir]
- IC50 (read-out: Drug susceptibility Aciclovir (ACV), isolate HPG002, HSV-1 pol E992K (2974G>A), also TK insert (G) nt 430-436, pol A1169T): 3 to 40 µM
- IC50 (read-out: Drug susceptibility Aciclovir (ACV), isolate HPG003, HSV-1 TK Y172S (515A>C)): 3 to 40 µM
- IC50 (read-out: Drug susceptibility Aciclovir (ACV), isolate HPG005, HSV-1 TK A37V (110C>T)): < 3 µM
- IC50 (read-out: Drug susceptibility Aciclovir (ACV), isolate HPG005, HSV-1 TK A192T (574G>A)): < 3 µM
- IC50 (read-out: Drug susceptibility Aciclovir (ACV), isolate HPG006, HSV-1 pol G121S (361G>A), also a TK resistance mutation (footnote a)): > 40 µM
- IC50 (read-out: Drug susceptibility Aciclovir (ACV), isolate HPG008, HSV-1 TK V204G (611T>G)): 3 to 40 µM
- IC50 (read-out: Drug susceptibility Aciclovir (ACV), isolate HPG009, HSV-1 pol E992K (2974G>A), also pol A1169T): < 3 µM
- IC50 (read-out: Drug susceptibility Aciclovir (ACV), isolate HPG010, HSV-1 TK Q125* (373C>T)): 3 to 40 µM
- IC50 (read-out: Drug susceptibility Aciclovir (ACV), isolate HPG011, HSV-1 TK Q125* (373C>T)): 3 to 40 µM
- IC50 (read-out: Drug susceptibility Aciclovir (ACV), isolate HPG012, HSV-1 pol G985E (2954G>A), also TK A93V): > 40 µM
- IC50 (read-out: Drug susceptibility Aciclovir (ACV), isolate HPG013, HSV-1 TK M121I (363G>A)): 3 to 40 µM
- IC50 (read-out: Drug susceptibility Aciclovir (ACV), isolate HPG013, HSV-1 pol D83A (248A>C), also TK M121I, pol A1169T): 3 to 40 µM
- IC50 (read-out: Drug susceptibility Aciclovir (ACV), isolate HPG014, HSV-1 pol A1115T (3343G>A)): < 3 µM
- IC50 (read-out: Drug susceptibility Aciclovir (ACV), isolate HPG014, HSV-1 pol R993C (2977C>T)): < 3 µM
- IC50 (read-out: Drug susceptibility Aciclovir (ACV), isolate HPG014, HSV-1 pol T54A (160A>G)): < 3 µM
- IC50 (read-out: Drug susceptibility Aciclovir (ACV), isolate HPG015, HSV-1 pol 966stop or F965_I966insF (2892_2893insT to 2895_2896insT)): < 3 µM
- IC50 (read-out: Drug susceptibility Aciclovir (ACV), isolate HPG016, HSV-1 pol A1169T (3505G>A)): < 3 µM
- IC50 (read-out: Drug susceptibility Aciclovir (ACV), isolate HPG018, HSV-1 TK frameshift (881delC to 885delC)): 3 to 40 µM
- IC50 (read-out: Drug susceptibility Aciclovir (ACV), isolate HPG018, HSV-1 pol P1199T (3595C>A), also TK deletion (C) nt 881-885, pol A1169T): 3 to 40 µM
- IC50 (read-out: Drug susceptibility Aciclovir (ACV), isolate HPG019, HSV-1 pol K750T (2249A>C), also TK deletion (G) nt 430-436, pol A1169T): > 40 µM
- IC50 (read-out: Drug susceptibility Aciclovir (ACV), isolate HPG020, HSV-1 pol S911N (2732G>A), also pol A1169T): < 3 µM
- IC50 (read-out: Drug susceptibility Aciclovir (ACV), isolate HPG021, HSV-1 pol R681Q (2042G>A), also TK deletion (G) nt 430-436): > 40 µM
- IC50 (read-out: Drug susceptibility Aciclovir (ACV), isolate HPG021, HSV-1 pol T839A (2515A>G), also TK deletion (G) nt 430-436): > 40 µM
- IC50 (read-out: Drug susceptibility Aciclovir (ACV), isolate HPG025, HSV-1 pol E850Q (2548G>C), also TK R216C): 3 to 40 µM
- IC50 (read-out: Drug susceptibility Aciclovir (ACV), isolate HPG026, HSV-1 pol E850Q (2548G>C), also TK R216C, pol A1169T): 3 to 40 µM
- IC50 (read-out: Drug susceptibility Aciclovir (ACV), isolate HPG027, HSV-1 TK V204G (611T>G), also pol S914L, A1169AT): > 40 µM
- IC50 (read-out: Drug susceptibility Aciclovir (ACV), isolate HPG027, HSV-1 pol S914L (2741C>T), also TK V204G, pol A1169T): > 40 µM
- IC50 (read-out: Drug susceptibility Aciclovir (ACV), isolate HPG029, HSV-1 TK Y172S (515A>C)): > 40 µM
- IC50 (read-out: Drug susceptibility Aciclovir (ACV), isolate HPG031, HSV-1 pol E1120A (3359A>C), also a TK resistance mutation (footnote e)): 3 to 40 µM
- IC50 (read-out: Drug susceptibility Aciclovir (ACV), isolate HPG031, HSV-1 pol G139R (415G>C or 415G>A), also a TK resistance mutation (footnote e)): 3 to 40 µM
- IC50 (read-out: Drug susceptibility Aciclovir (ACV), isolate HPG032, HSV-1 TK 183* (437_438insA)): 3 to 40 µM
- IC50 (read-out: Drug susceptibility Aciclovir (ACV), isolate HPG033, HSV-1 TK I358L (1072A>C), also TK T287M): 3 to 40 µM
- IC50 (read-out: Drug susceptibility Aciclovir (ACV), isolate HPG033, HSV-1 pol N1046T (3137A>C), also TK T287M, pol A1169T): 3 to 40 µM
- IC50 (read-out: Drug susceptibility Aciclovir (ACV), isolate HPG035, HSV-1 pol S239L (716C>T), also pol S724N): 3 to 40 µM
- IC50 (read-out: Drug susceptibility Aciclovir (ACV), isolate HPG037, HSV-1 TK L69M (205>A), also TK Y239H): 3 to 40 µM
- IC50 (read-out: Drug susceptibility Aciclovir (ACV), isolate HPG037, HSV-1 TK R256W (766C>T)): 3 to 40 µM
- IC50 (read-out: Drug susceptibility Aciclovir (ACV), isolate HPG037, HSV-1 TK Y239H (715T>C)): 3 to 40 µM
- IC50 (read-out: Drug susceptibility Aciclovir (ACV), isolate HPG039, HSV-1 TK 85* or H58fs (169delC, 170delC, 171delC, or 172delC)): 3 to 40 µM
- IC50 (read-out: Drug susceptibility Aciclovir (ACV), isolate HPG040, HSV-1 pol S911N (2732G>A), also TK deletion (C) nt 896-900, pol A1169T): > 40 µM
- IC50 (read-out: Drug susceptibility Aciclovir (ACV), isolate HPG041, HSV-1 pol S911N (2732G>A), also pol A1169T): < 3 µM
- IC50 (read-out: Drug susceptibility Aciclovir (ACV), isolate HPG042, HSV-1 TK frameshift (881delC to 885delC)): 3 to 40 µM
- IC50 (read-out: Drug susceptibility Aciclovir (ACV), isolate HPG042, HSV-1 pol A972V (2915C>T), also TK deletion (C) nt 881-885, pol A1169T): > 40 µM
- IC50 (read-out: Drug susceptibility Aciclovir (ACV), isolate HPG042, HSV-1 pol G22R (64G>A), also TK deletion (C) nt 881-885, pol A1169T): > 40 µM
- IC50 (read-out: Drug susceptibility Aciclovir (ACV), isolate HPG043, HSV-1 TK 183* (437_438insA)): 3 to 40 µM
- IC50 (read-out: Drug susceptibility Aciclovir (ACV), isolate HPG045, HSV-1 TK L49R (146T>G)): 3 to 40 µM
- IC50 (read-out: Drug susceptibility Aciclovir (ACV), isolate HPG045, HSV-1 pol L419I (1255C>A), also TK L49R, pol A1169T): 3 to 40 µM
- IC50 (read-out: Drug susceptibility Aciclovir (ACV), isolate HPG046, HSV-1 TK I166N (497T>A)): 3 to 40 µM
- IC50 (read-out: Drug susceptibility Aciclovir (ACV), isolate HPG047, HSV-1 pol E680 (2039A>C), also TK deletion (C) nt 548-553, pol A1169T): 3 to 40 µM
- IC50 (read-out: Drug susceptibility Aciclovir (ACV), isolate HPG050, HSV-1 TK Q34* (100C>T)): > 40 µM
- IC50 (read-out: Drug susceptibility Aciclovir (ACV), isolate HPG051, HSV-1 pol D83A (248A>C), also TK R176stop): 3 to 40 µM
- IC50 (read-out: Drug susceptibility Aciclovir (ACV), isolate HPG052, HSV-1 TK Q34* (100C>T)): 3 to 40 µM
- IC50 (read-out: Drug susceptibility Aciclovir (ACV), isolate HPG053, HSV-1 pol L802R + A834S (2405T>G, 2500G>T), also TK R176W): > 40 µM
- IC50 (read-out: Drug susceptibility Aciclovir (ACV), isolate HPG053, HSV-1 pol S911N (2732G>A), also TK R176W, pol A1169T): > 40 µM
- IC50 (read-out: Drug susceptibility Aciclovir (ACV), isolate HPG054, HSV-1 pol E992K (2974G>A), also TK insert (G) nt 430-436, pol A1169T): 3 to 40 µM
- IC50 (read-out: Drug susceptibility Aciclovir (ACV), isolate HPG055, HSV-1 TK V204G (611T>G), also pol A1169AT): 3 to 40 µM
